Test results published in patent publication US20120041211A1, “NOVEL PROCESS FOR PREPARING CARBOXY-CONTAINING PYRAZOLEAMIDO COMPOUNDS 597” (priority 2009, published 2012).

Test: Stability of solvate form on exposure to the lab atmosphere
Type: physicochemical
Conditions: 21° C., 30% relative humidity, material from wet suspension
Protocol: 20 mg of Form 4 was added to a small vessel. 0.711 ml of Form 4 saturated MeOH solution was added to the vessel making a suspension. The suspension was stirred for 7 days at 25° C. Thereafter the suspension was stirred at 21° C. for 1½ months. The wet suspension was analysed by XRPD (Cu-source) giving substantially the following d-values. […] For diffractogram see FIG. 8.
20 mg of Form 4 was added to a small vessel. 0.711 ml MTBE was added to the vessel making a suspension. The suspension was stirred for 7 days at 25° C. The wet suspension was analysed by XRPD (Cu-source) giving substantially the following d-values.

stability / form transformation on exposure to the lab atmosphere	SMILES
transforms to Hydrate	CC(C)(C)c1c(C(=O)NC2C3CC4CC(C3)CC2C4)cnn1-c1ccc(C(=O)O)cc1 (centres unmarked) [MTBE Solvate, 4-[4-(2-adamantylcarbamoyl)-5-tert-butyl-pyrazol-1-yl]benzoic acid]
rapidly transforms to Form 3	CC(C)(C)c1c(C(=O)NC2C3CC4CC(C3)CC2C4)cnn1-c1ccc(C(=O)O)cc1 (centres unmarked) [MeOH Solvate, 4-[4-(2-adamantylcarbamoyl)-5-tert-butyl-pyrazol-1-yl]benzoic acid]
